This is an account of results in patent US7005430B2, “Fused purine derivatives” (Kyowa Hakko Kogyo Co., Ltd., priority 1999, dated 2006).

Where a name gives a salt, the structure may show the parent alone.

For orientation: melting point means the temperature of the solid-liquid transition.

Data set [1] concerns MIN6 cell. The data set can be described thus: Insulin secretion promoting activity for cultured β cells (MIN6). In kind it is cell-based. Here is the method:
Culture of the MIN6 cells above and insulin secretion test utilizing the MIN6 cells were performed according to the methods described in Diabetologia, vol. 36, pp. 1139–1145, 1993. The effect of a compound on the insulin secretion in the presence of 14.5 mmol/L glucose was determined by measuring insulin amounts in cell culture supernatants collected as follows. MIN6 cells cultured on a 24-well plate were washed twice by using 1 mL of Buffer A (119 mmol/L sodium chloride, 4.74 mmol/L potassium chloride, 2.54 mmol/L calcium chloride, 1.19 mmol/L magnesium sulfate, 1.19 mmol/L potassium dihydrogenphosphate, 10 mmol/L 2-[4-(2-hydroxyethyl)-1-piperazinyl]ethanesulfonic acid, 0.1% bovine serum albumin, pH 7.3) containing 2 mmol/L glucose, and then were incubated in 1 mL of Buffer A containing 2 mmol/L glucose at 37° C. for 45 minutes. After the incubation, the culture supernatant was changed to Buffer A (0.9 mL) containing a test compound at various concentrations and 2 mmol/L glucose, and the cells were further incubated at 37° C. for 15 minutes. The MIN6 cells were stimulated with glucose by the addition of Buffer A (0.1 mL) containing 127 mmol/L glucose to the culture (final glucose concentration: 14.5 mmol/L). After the stimulation, the cells were further incubated at 37° C. for 45 minutes, and then the culture supernatant was collected.
Separately, the effect of a compound on the insulin secretion in the presence of 5 mmol/L glucose was determined by measuring insulin amounts in cell culture supernatants collected as follows. MIN6 cells cultured on a 24-well plate were washed twice by using 1 mL of Buffer A containing 5 mmol/L glucose, and then the culture supernatant was changed to Buffer A (0.9 mL) containing a test compound at various concentrations and 5 mmol/L glucose. Then, the cells were incubated at 37° C. for 45 minutes (final glucose concentration: 5 mmol/L), and the culture supernatant was collected.
After the culture supernatant was diluted with a phosphate buffer containing 1% bovine serum albumin, 0.1% Tween 20, 0.12% disodium ethylenediaminetetraacetate (EDTA) and 0.1% sodium azide, antibody-reactive insulin secreted in the culture supernatant was quantified by enzyme immunoassay or radio immunoassay. The insulin level was indicated as the amount of human insulin (ng/mL). The results are indicated as averages (avg) for 3 to 4 samples with standard erroe values (se).

In data set [2] the test system is dd mice. The data set is described as follows: Acute toxicity test (minimum lethal dose). Type of data set: in vivo. Particulars: po, mortality rate after seven days. Here is the method: A test compound was orally administered to dd mice [male, body weight: 20±1 g (n=3)]. Mortality rate after seven days was measured to determine minimum lethal dose (MLD).
The test system of data set [3] is Wistar male rats. The data set can be described thus: Hyperglycemia suppressing action after glucose loading in normal rats. As to conditions: 14 mg/kg po. Type of data set: in vivo. Here is the method: Wistar male rats (body weight: about 280 g) were used for the experiment after starvation for 24 hours. A test compound was orally administered to the rats 15 minutes before oral administration of glucose (2 g/kg). Blood was collected from a tail vein before the administration of the test compound and 30, 60, 120 and 180 minutes after the glucose loading, and blood glucose level was measured by using a simplified blood sugar level measuring apparatus.

The mark [4] stands for this setting: in the presence of 5 mmol/L of glucose, drug concentration 10 (mmol/L [sic]), None = 51.2.
Where [5] appears, read: in the presence of 14.5 mmol/L of glucose, drug concentration 1.0 μmol/L, None = 148.4.

With `CCOC1=Nc2nc(C(C)(C)C)[nH]c2C2=N[C@H](Cc3ccccc3)CN12` [Compound 70, (R)-8-Benzyl-2-(tert-butyl)-5-ethoxy-7,8-dihydro-1H-imidazo[2,1-i]purine], the melting point fell in the range of 220 to 222 °C. Besides, the “Insulin secretion amount (ng/ml) avg” value in data set [1] (setting [4]) was determined as 57.0 ng/mL. Further, the “Insulin secretion amount (ng/ml) avg” value in data set [1] (setting [5]) was found to be 174.9 ng/mL.

In the case of `O=C1N2CC(Cc3ccncc3)N=C2c2[nH]c(C3CCCC3)nc2N1CC1CC1` (stereo not shown) (as salt: hydrochloride) [Compound 14, 2-Cyclopentyl-4-cyclopropylmethyl-7,8-dihydro-8-(4-picolyl)-1H-imidazo[2,1-i]purin-5(4H)-one dihydrochloride], the melting point fell in the range of 240 to 241 °C.

The molecule `CCCN1C(=O)N2C[C@@H](Cc3ccccc3)N=C2c2[nH]c(C3CCN(C(=O)OC(C)(C)C)CC3)nc21.Cl` yielded a melting point of 204 to 205 °C.

For `CCCN1C(=O)N2C[C@@H](Cc3ccccc3)N=C2c2c1nc(SC)n2COC` [Compound 36, (R)-8-Benzyl-7,8-dihydro-1-methoxymethyl-2-methylthio-4-(n-propyl)-1H-imidazo[2,1-i]purin-5(4H)-one], the melting point is 110 to 112 °C.

In the case of `CCCN1C(=O)N2CC(Cc3ccncc3)N=C2c2[nH]c(C(C)(C)C)nc21` (stereo not shown) [Compound 11, 2-(tert-Butyl)-7,8-dihydro-8-(4-picolyl)-4-(n-propyl)-1H-imidazo[2,1-i]purin-5(4H)-one], the melting point was in the range of 293 to 295 °C.

Regarding `CSC1=Nc2nc(C(C)(C)C)[nH]c2C2=N[C@H](Cc3ccccc3)CN12` [Compound 73, (R)-8-Benzyl-2-(tert-butyl)-7,8-dihydro-5-methylthio-1H-imidazo[2,1-i]purine], the melting point was 171 to 174 °C. Moreover, in data set [1] (setting [4]), the “Insulin secretion amount (ng/ml) avg” value was determined as 63.3 ng/mL. Further, in data set [1] (setting [5]), the “Insulin secretion amount (ng/ml) avg” value is 176.6 ng/mL.

Turning to `CCCN1C(=O)N2C[C@@H](Cc3ccncc3)N=C2c2[nH]c(C3CCCC3)nc21` [Compound 2, (R)-2-Cyclopentyl-7,8-dihydro-8-(4-picolyl)-4-(n-propyl)-1H-imidazo[2,1-i]purin-5(4H)-one D-tartrate], the “minimum lethal dose (MLD)” value in data set [2] is given as “not less than 500 mg/kg”. Further, the “Insulin secretion amount (ng/ml) avg” value is 86.3 ng/mL in data set [1] (setting [4]) and 203.6 ng/mL in data set [1] (setting [5]). In addition, the “Plasma Glucose Concentration” value in data set [3] (30 minutes after glucose loading (2 g/kg), Control 169 ± 7.2) is 144 ± 6.6 mg/dL; in data set [3] (60 minutes after glucose loading (2 g/kg), Control 167 ± 8.0) it was 156 ± 5.7 mg/dL; in data set [3] (120 minutes after glucose loading (2 g/kg), Control 93 ± 4.5) it was 90 ± 5.7 mg/dL; in data set [3] (180 minutes after glucose loading (2 g/kg), Control 83 ± 3.7), 82 ± 4.2 mg/dL; in data set [3] (time 0 (before administration of the test compound), Control 82 ± 3.7), 91 ± 2.1 mg/dL.

The molecule `Cl.O=C1N2C[C@@H](Cc3ccc(F)cc3)N=C2c2[nH]c(C3CCCC3)nc2N1CCO` had a melting point of 165 to 167 °C.

For `CCCN1C(=O)N2C[C@@H](Cc3ccccc3)N=C2c2[nH]c(CCC(=O)O)nc21`, the melting point lay within 274 to 276 °C.

`CCCN1C(=O)N2C[C@@H](Cc3ccccc3)N=C2c2c1nc(CCl)n2Cc1ccccc1` [Compound 42, (R)-1,8-Dibenzyl-2-chloromethyl-7,8-dihydro-4-(n-propyl)-1H-imidazo[2,1-i]purin-5(4H)-one] returned a melting point of 112 to 113 °C.

For `Cl.O=C(O)CN1C(=O)N2C[C@@H](Cc3ccccc3)N=C2c2[nH]c(C3CCCC3)nc21`, the melting point is 280 °C (dec.).

In turn, `CCCN1C(=O)N2C[C@@H](Cc3ccccc3)N=C2c2[nH]c(C3(O)CCCC3)nc21` (as salt: salt) [Compound 40, (R)-8-Benzyl-7,8-dihydro-2-(1-hydroxycyclopentyl)-4-(n-propyl)-1H-imidazo[2,1-i]purin-5(4H)-one] had a melting point of 187 to 188 °C.

As to `CCCN1C(=O)N2CC(Cn3cccn3)N=C2c2[nH]c(C3CCCC3)nc21` (stereo not shown) [Compound 21, 2-Cyclopentyl-7,8-dihydro-4-(n-propyl)-8-(1-pyrazolylmethyl)-1H-imidazo[2,1-i]purin-5(4H)-one], the “Insulin secretion amount (ng/ml) avg” value came out at 74.8 ng/mL in data set [1] (setting [4]) and 182.1 ng/mL in data set [1] (setting [5]).

`CCCN1C(=O)N2CC(Cc3ccccc3)CN=C2c2[nH]c(COCC)nc21.O=C(O)/C=C/C(=O)O` (stereo not shown) gave a melting point of 152 to 157 °C.

Take `CCCc1nc2c([nH]1)C1=NC(Cc3ccncc3)CN1C(=O)N2CCC` (stereo not shown) [Compound 8, 7,8-Dihydro-8-(4-picolyl)-2,4-dipropyl-1H-imidazo[2,1-i]purin-5(4H)-one]: the melting point was 270 to 274 °C.

As for `CCCN1C(=O)N2C[C@@H](Cc3ccccc3)N=C2c2[nH]c(COCC)nc21.CCCN1C(=O)N2C[C@@H](Cc3ccccc3)N=C2c2[nH]c(COCC)nc21.O=C(O)/C=C/C(=O)O` [Compound 45, (R)-8-Benzyl-2-ethoxymethyl-7,8-dihydro-4-(n-propyl)-1H-imidazo[2,1-i]purin-5(4H)-one 0.5 fumarate], the “Insulin secretion amount (ng/ml) avg” value in data set [1] (setting [4]) stood at 69.9 ng/mL; in data set [1] (setting [5]), 178.8 ng/mL.

Molecule `CCCN1C(=O)N2C[C@@H](Cc3ccccc3)N=C2c2c1nc(C=O)n2Cc1ccccc1` [Compound 41, (R)-1,8-Dibenzyl-2-formyl-7,8-dihydro-4-(n-propyl)-1H-imidazo[2,1-i]purin-5(4H)-one] registered a melting point of 184 to 185 °C.

For the molecule `CCCN1C(=O)N2CC(Cn3cccc3)N=C2c2[nH]c(C3CCCC3)nc21` (stereo not shown) [Compound 24, 2-Cyclopentyl-7,8-dihydro-4-(n-propyl)-8-(1-pyrrolylmethyl)-1H-imidazo[2,1-i]purin-5(4H)-one], the “Insulin secretion amount (ng/ml) avg” value in data set [1] (setting [4]) was determined as 71.8 ng/mL; in data set [1] (setting [5]), 200.0 ng/mL.

Turning to `CCCN1C(=O)N2C[C@@H](Cc3ccccc3)N=C2c2c1nc(Br)n2Cc1ccccc1` [Compound 35, (R)-1,8-Dibenzyl-2-bromo-7,8-dihydro-4-(n-propyl)-1H-imidazo[2,1-i]purin-5(4H)-one], the melting point was in the range of 200 to 206 °C.

For the molecule `CCCN1C(=O)N2C[C@@H](Cc3ccccc3)N=C2c2[nH]c(CSCC)nc21.CCCN1C(=O)N2C[C@@H](Cc3ccccc3)N=C2c2[nH]c(CSCC)nc21.O=C(O)/C=C/C(=O)O` [Compound 64, (R)-8-Benzyl-2-ethylthiomethyl-7,8-dihydro-4-(n-propyl)-1H-imidazo[2,1-i]purin-5(4H)-one 0.5 fumarate], the “Insulin secretion amount (ng/ml) avg” value in data set [1] (setting [4]) was found to be 61.2 ng/mL; in data set [1] (setting [5]), 204.9 ng/mL.

For the molecule `CCCN1C(=O)N2C[C@@H](Cc3ccccc3)N=C2c2[nH]c(C3(O)CCCC3)nc21` [Compound 40, (R)-8-Benzyl-7,8-dihydro-2-(1-hydroxycyclopentyl)-4-(n-propyl)-1H-imidazo[2,1-i]purin-5(4H)-one], the “Insulin secretion amount (ng/ml) avg” value was determined as 56.7 ng/mL in data set [1] (setting [4]) and 191.2 ng/mL in data set [1] (setting [5]).
